Key:
[1] = system: CaCo cell monolayers; assay: Gut monolayer SCFA absorption measurements (Transwell, apical/basal sampling over 24 h); type: in vitro ADME; conditions: CaCo monolayer-derived rate constant
Method: Applicants used a gut monolayer system without the immune component, the Gut monolayer was prepared as previously described by WLK Chen et al. (Chen et al., 2017b) Briefly Caco-2 or C2BBe1 along with HT29-MTX-E21 cells (Sigma) were seeded onto rat tail collagen I-(corning 354236) coated Transwell inserts (Corning 3460) in a 9:1 ratio (1×10^5 cells/cm2) in 500 μl seeding medium. The top and bottom compartments of the Transwell Plate were fed with 500 ul and 1.5 ml of seeding medium. The medium was changed every 2-3 days. After 20 days of gut insert maturation, the cell monolayer was ready to use.
Barrier integrity was quantified by TEER (TransEpithelial Electrical Resistance) using the EVOM2 and the Enfohm-12 (World Precision Instruments) at 37° C. Applicants measured cell monolayer integrity at the beginning and the end of the 24 h long experiment. […]
Gut luminal concentrations of microbially-derived SCFAs is a balance between net production in the lumen and absorption by the host epithelium. Unfortunately, quantitative understanding of the rate of absorption of a given SCFA by cells in the gut epithelia is limited. […] Applicants sought to estimate the order of magnitude of this rate constant, to better understand the fate of SCFAs produced by the microbiota in the colon (i.e. the balance between quantities absorbed versus quantities excreted). […]

[2] = dialysis bag constant; cited from earlier work
[3] = system: stool microbiota; assay: Ex vivo stool slurry incubation, SCFA production by GC-FID; parameters: species or system human
Method: (§1) Fresh stool samples were collected and weighed before being transferred to anaerobic conditions, in which they were diluted in reduced PBS containing 0.1% L-Cysteine to a ratio of 1 g/5 ml. Samples were homogenized into a slurry before being aliquoted into 96-well plates. Samples of the unaltered slurry were taken for a baseline sample, after which inulin, pectin, and cellulose were added from stock solutions to final slurry concentrations of 10 g/L, 5 g/L and 20 g/L, respectively. Concentrations of inulin and pectin were determined based on the maximum stock concentration we were able to obtain in which the dietary fiber was fully dissolved. Four conditions were measured: inulin, pectin, cellulose and control (no spike-in). The samples were incubated anaerobically at 37° C., and two biological replicates (two different wells in the 96-well plates) were collected at each time point. Samples were collected after 2 and 4 hours from all participants and sent out for SCFA quantification on a GC-FID. Linear production rate was measured between 2 h and 4 h because this allowed Applicants maximum accuracy in measuring the time interval without introducing artefacts due to delays between conditions introduced during setup. Results obtained from slurry in large flasks on a shaker were in good agreement with data obtained in a 96-well plate format.
Chromatographic analysis was carried out using an Agilent 7890B system with a flame ionization detector (FID) (Agilent Technologies, Santa Clara, Calif.). A high resolution gas chromatography capillary column 30 m×0.25 mm coated with 0.25 μm film thickness was used (DB-FFAP) for the volatile acids (Agilent Technologies) and a high resolution gas chromatography capillary column 30 m×0.25 mm coated with 0.50 μm film thickness was used (DB-FFAP) for the nonvolatile acids. Nitrogen was used as the carrier gas. […]
The samples were kept frozen at −80° C. until analysis. […] A sample of the raw fecal material was transferred to a 2 mL tube, the weight of the fecal material was determined and 1.5 mL of HPLC water was added to each sample. […]

[4] = system: stool microbiota; assay: Ex vivo stool slurry incubation, inulin depletion by inulin-specific ELISA; parameters: species or system human
Method: as §1
Applicants use BioPAL's inulin immunoassay kit (BioPAL Worcester Mass.) to measure inulin concentration in filtrate from stool samples and follow manufacture's protocol. […]
To measure SCFA production ex vivo in response to different dietary polysaccharides, stool from 40 healthy human participants was homogenized into a slurry in anaerobic conditions and spiked with inulin, pectin or cellulose (cf. Methods). The slurry was then allowed to evolve over time and samples obtained at regular intervals in order to quantify SCFA content at each timepoint (FIG. 1). In order to determine the appropriate sampling frequency, Applicants performed pilot experiments in which Applicants analysed the trajectory of each SCFA concentration over a 24 h period. […]

## CCCC(=O)[O-].[Na+] [butyrate, Sodium Butyrate]
[1]
  absorption rate constant of butyrate: 0.091 mmol L-1h-1cm-2
[2]
  absorption rate constant of butyrate: 0.0019 mmol L-1h-1cm-2

## cellulose
[3]; 20 g/L cellulose, timepoints 2 h and 4 h
  SCFA production rates versus control (no spike-in): indistinguishable from control

## inulin
[4]; 10 g/L inulin, 4 h
  inulin substrate in slurry after 4 h: a significant fraction of inulin substrate remained
[4]; 10 g/L inulin, 24 h, five of the six participants tested
  inulin substrate in slurry by 24 h: almost entirely consumed
[4]; input concentration 10 g/L, most participants
  time for the majority of inulin to be fermented by the microbiota ex vivo: 12 to 24 h
[3]; participant C
  butyrate concentration over 24 h: only produces butyrate from inulin

## pectin
[3]; participant G
  butyrate concentration over 24 h: produces it from pectin as well

— US20220351803A1, “Predicting The Response Of A Microbiota To Dietary Fibers” (MYOTA GMBH, priority 2019, published 2022)
